Results taken from a melting point compilation (Tetko et al.; mined from patent text by program, amines drawn as free bases though some values may be those of a salt).

| Compound | melting point |
| --- | --- |
| N#Cc1cc(C(=O)NNC(=O)c2occc2-c2ccccc2OCC2CCCCC2)ccc1O | 142 to 143 °C |
| Fc1ccc2[nH]cc(CC3CCN(CCOc4cccc5c4OCCO5)CC3)c2c1 | 157 to 159 °C |
| CCC(O)CNC(=O)c1ccc(C(F)(F)F)c(N)c1 (stereo not drawn) | 132 to 134 °C |
| CCOC(=O)c1ncn2cc(Br)sc12 | 171 to 172 °C |
| CSc1ccc(C=CC(=O)c2ccc(Br)cc2)cc1 | 161 °C |
| Cc1noc(C)c1Cn1nnnc1-c1cccc(Cl)c1Cl | 176 to 178 °C |
| CCOC(=O)c1ccc(-c2ccc(OC)c3c2OCCO3)cc1 | 141 to 142 °C |
| CCC1(c2cccc([N+](=O)[O-])c2)C(=O)NC(=O)NC1=O | 283 to 284 °C |
| COc1cnn([C@@H]2C[C@H](O)[C@@H](O)[C@H]2O)c(=O)c1Cl (racemic) | 166 to 168 °C |
| N#CN=C(NCC(=O)O)Nc1cccc(Cl)c1 | 109 °C |
| Cc1cc(F)c(Nc2ncnc3cc(O)ccc23)cc1O | 274 to 278 °C |
| CCC(=O)c1cc(-c2ccc(OC)cc2)no1 | 135 to 136 °C |
| CCn1c(O)cc(C)c(C#N)c1=O | 230 to 237 °C |
| CCCCCCCCCCCCCCCCCCOc1cc(OCCCCCCc2cccc(O)c2O)cc(C(=O)OC)c1 | 82 to 84 °C |
| CC(=O)NC(C)C(C)n1ncn(-c2ccc(N3CCN(c4ccc(O)cc4)CC3)cc2)c1=O (stereo not drawn) | 264 °C |
| O=C(O)c1ccc(CCCOCCCCCCNCC(O)c2ccc(O)c(CO)c2)cc1 (stereo not drawn) | 50 to 58 °C |
| CC1NC(=O)NN=C1c1ccc2c(c1)CCC(=O)N2C (stereo not drawn) | 240 to 242 °C |
| CCOC(=O)N1CCN(C(=O)/C=C/S(=O)(=O)c2ccccc2)CC1 | 116 to 117 °C |
| COc1ccc2[nH]cc(CC(=O)N3CCN(c4ccc(NC(=N)c5cccs5)cc4)CC3)c2c1 | 221 to 222 °C |
| CCCOc1ccc(-c2scc(-c3ccccc3Cl)c2CC(=O)OC)cc1 | 81 to 82 °C |
| Cc1noc(C2CCCCC2=O)n1 (stereo not drawn) | 74 to 76 °C |
| Cc1ccccc1S(=O)(=O)NC1CCc2sccc2C1 (stereo not drawn) | 130 to 132 °C |
| CCC(CC)(CC(=O)Nc1ccc2ccc(OCc3ccc4ccccc4n3)cc2c1)C(=O)O | 190 to 191 °C |
| Nc1cccc(CC(=O)NCc2ccccc2Br)c1 | 110 to 112 °C |
| COC(=O)C(c1ccccc1)(c1ccccc1)c1c[nH]c(C)n1 | 136 °C |
| CC1=C(C#N)S(=O)(=O)c2cc(Cl)ccc2N1 | 297 to 299 °C |

| Compound | melting point |
| --- | --- |
| CCCCc1oc2ccc(C(=O)OC)cc2c1C(=O)c1ccc(CCN=[N+]=[N-])cc1 | 60 to 62 °C |
| O=C1Cn2ccnc2-c2ccccc2N1 | 265 to 266 °C |
| COc1cc2c(c3c1OC(C)(C)C3)C(c1cccc(N3CCNC3=O)c1)=NC(C)(C)C2 | 225 to 227 °C |
| COC(=O)c1cccc2cc(-c3ccccc3)oc12 | 45 to 47 °C |
| CS(=O)(=O)c1cccc(NC(=O)c2ccccc2O)c1 | 210 to 212 °C |
| NC(=O)C(CCCCCc1ccc(Cl)cc1)C(=O)O (stereo not drawn) | 125 to 126 °C |
| COc1ccccc1C(=C1CN(C(c2ccccc2)c2ccccc2)C1)S(C)(=O)=O | 204 °C |
| CCS(=O)(=O)c1cc(C(=O)NCC(Cl)CCCCl)c(OC)cc1N (stereo not drawn) | 109 °C |
| Cc1csc(N2CCN(Cc3ccc(C(=O)Nc4ccc(F)cc4)cc3)C2=O)n1 | 206 to 207 °C |
| CCCCCCCCCCCCCCC[C@@H](O)C(Cl)C(=O)OC (stereo partly drawn) | 39 to 40 °C |
| Cc1c(CO)c(Cl)nc2ccccc12 | > 260 °C |
| CS(=O)c1ccc(-c2coc3ccc(-c4nnc(S)o4)cc23)cc1 (stereo not drawn) | 234 to 235 °C |
| CSc1nn(C(C)(C)C)c(=O)c(Cl)c1C1C=CC(C(C)(C)C)CC1 (stereo not drawn) | 82 to 84 °C |
| CCCN(CCC)c1nc2c(N3CCCCCC3)nc(N3CCOCC3)cc2c(=O)[nH]1 | 250 °C |
| O=C1NCCn2c1nc1c2CCCC1 | > 250 °C |
| O=C(O)C=CC=CCSc1ccccc1 | 108 to 110 °C |
| CC(C)C1(C)N=C(c2ccccc2C(=O)O)NC1=S (stereo not drawn) | 192 to 198 °C |
| COc1cc(OC)nc(Oc2cccc3c2C(=O)OC3Cl)n1 (stereo not drawn) | 143 to 144 °C |
| Cn1cc(C2=C(c3cn(C)c4cc(C#N)ccc34)C(=O)NC2=O)c2ccc(N)cc21 | 255 to 260 °C |
| CS(=O)c1nc(O)nn1-c1ccccc1 (stereo not drawn) | 180 to 182 °C |
| O=S(=O)(c1ccc(Nc2nccc(Nc3ccc(F)cc3)n2)cc1)N(CCN1CCCC1)C1CCC2(CC1)OCCO2 | 155 °C |
| CC(C)c1nn(-c2ccc(C(F)(F)F)cn2)cc1CCCCOS(C)(=O)=O | 87 to 89 °C |
| CCOP(=O)(Cc1nnc2c(=O)[nH]c3cc(C(F)(F)F)c(N)cc3n12)OCC | 260 to 263 °C |
| CC(=O)c1cc2sc(N)c(C#N)c2s1 | 285 °C |
| CCCCCCCCCCCCc1ccccc1C(Sc1nnnn1CCCC(=O)O)C(=O)O (stereo not drawn) | 86 to 88 °C |
| N#Cc1ccc(CC(=O)Nc2cccc(C(=O)NCCC(=O)OCc3ccccc3)c2)cc1 | 98 to 99 °C |

| Compound | melting point |
| --- | --- |
| CCCCNc1nc(C)c(C(=O)OCC)c(N)c1[N+](=O)[O-] | 74 to 76 °C |
| Cc1ccc(S(=O)(=O)NC(=O)OCCc2ccc(-n3c(CCCc4ccccc4)nc4c(C)nc(C)cc43)cc2)cc1 | 175 °C |
| COCCOc1ccc(C#CC2(O)CN3CCC2CC3)cc1Cl (stereo not drawn) | 138 to 139 °C |
| COc1cc(Nc2nc3c(ccc4c3ncn4CCN3CCOCC3)cc2C#N)c(C)cc1Cl | 246 to 248 °C |
| CC(=O)Oc1ccc(C(=O)CN(CCNC(=O)Cc2ccccc2)Cc2ccccc2)cc1OC(C)=O | 140 to 145 °C |
| CNCC(=O)N1c2ccccc2N2CCc3cccc(c32)C1C (stereo not drawn) | 106 to 110 °C |
| C(=Cc1ccc(-c2nnn[nH]2)cc1)c1ccc(OCc2ccc3ccccc3n2)cc1 | 241 to 243 °C |
| CCSc1cnn(-c2cc(-c3ccnc(Nc4cccc(Cl)c4)n3)ccn2)c(=O)c1Cl | 80 to 100 °C |
| Cc1ccc(Br)cc1NS(=O)(=O)c1ccccc1C(=O)O | 274 to 276 °C |
| N#CC=C(N)c1ccccc1C(F)(F)F | 101 to 103 °C |
| NC(=O)c1ccc(OCCCC(=O)O)cc1 | 162 to 164 °C |
| C#CCOC(=O)C=Cc1csc(Cl)c1Cl | 84 to 86 °C |
| OCCOCn1c(Cl)nc2c(Cl)c(Cl)c(Cl)c(Cl)c21 | 168 to 170 °C |
| NC(=O)c1ccc(F)c2c1CC(N(CCc1c[nH]c3ccc(F)cc13)CC1CC1)CO2 (stereo not drawn) | 132 °C |
| Nc1ccc(Oc2cc(C34CCCCC3C(=O)NC4=O)c(F)cc2Cl)cc1 (stereo not drawn) | 213 to 215 °C |
| CC(C)(CCC(C)(C)NCc1ccccc1O)NCc1ccccc1O | 111 to 112 °C |
| CCCOc1ccc(S(=O)(=O)N2CCN(CC)CC2)cc1-c1nc2cc(N)c([N+](=O)[O-])cc2c(=O)[nH]1 | 248 to 250 °C |
| Cc1ccccc1C(=NO)C(=O)OC(C)C | 77 to 78 °C |
| CCn1ncc(-c2ccc3c(c2)c(C2CCN(CCN4CCNC4=O)CC2)cn3-c2ccc(F)cc2)n1 | 173 to 175 °C |
| O=c1[nH]ncc2[nH]c(-c3ccc(OC(F)F)c(OC4CC4)c3)c(CC3CC3)c12 | 204 to 206 °C |
| CNC(=O)N(C)C(=O)Nc1nc(C(Cl)(Cl)Cl)ns1 | 94 °C |
| O=CC12CC(c3ccccc31)c1ccccc12 | 102 °C |
| COC1=NS(=O)(=O)N(C)C(Cl)=N1 | 77 to 83 °C |
| COc1ccc(C(=O)Nc2c(Cl)cncc2Cl)c2[nH]cnc12 | 292 to 293 °C |
| CC(O)C1CCC2C3CC=C4CC(N)CCC4(C)C3CCC12C (stereo not drawn) | 160 °C |
| COc1ccc(OCCCCCN2CCN(Sc3ccc[nH]3)CC2)cc1 | 83 to 85 °C |

| Compound | melting point |
| --- | --- |
| OCCN1CCN(Cc2ccc(O)c3ncccc23)CC1 | 123 to 124 °C |
| CC(C)Sc1c(C2=NC(C)(C)CO2)oc(Br)c1Br | 71 to 72 °C |
| CCCC(=O)Nc1cc(Oc2ccccc2)ccc1NC(=NC(=O)OCC)SC | 118 °C |
| O=C1COC(=O)C1=Cc1ccc(C(=O)O)s1 | 255 to 268 °C |
| CSCC[C@H]1NC(=O)[C@@H]([C@H](C)c2cccc3ccccc23)NC1=O | 265 to 268 °C |
| NS(=O)(=O)c1ccsc1C1=NOCCO1 | 180 °C |
| CCC(=O)NNc1ccnc2c(NC(=O)c3c(Cl)cccc3Cl)cccc12 | 246 to 248 °C |
| c1ccc(-n2c3ccccc3c3c2ccc2c4ccccc4n(-c4ccccc4)c23)cc1 | 166 °C |
| COc1ccc2c(-c3ccc(Cl)cc3F)noc2c1Cl | 193 to 194 °C |
| CCn1c(=O)c2c(nc(/C=C/c3cc(OC)ccc3OC(C)=O)n2C)n(CC)c1=O | 186 to 187 °C |
| Cn1c(-c2ccc(O)cc2)cc2ccc(O)cc21 | 200 to 204 °C |
| Cc1nc(Cn2c(=O)sc3cc(F)c(N)cc32)no1 | 156 to 157 °C |
| CN(CCCNC(=NCCCCOc1cccc(CN2CCCCC2)c1)NC#N)CCN(Cc1ccc(F)cc1)c1ccccn1 | 102 to 105 °C |
| CCOCc1nc2c(N)nc3cc(-c4cccnc4)ccc3c2n1CC1CCN(C(=O)OC(C)(C)C)CC1 | 197 to 198 °C |
| CN(C)c1cccc(CC(=O)Cc2cccc(Cl)c2)c1 | 58 to 60 °C |
| COC(=O)C(=O)NCCc1ccc(OCc2ccccc2)c(OCc2ccccc2)c1 | 84 °C |
| CC1CN(c2cc3ccccc3c(=O)[nH]2)CCN1 (stereo not drawn) | 164 to 167 °C |
| Cc1oc2ccc(Br)cc2c(=O)c1-c1ccccc1 | 119 to 121 °C |
| O=C(O)Cc1c([N+](=O)[O-])cc(O)c(O)c1[N+](=O)[O-] | 178 to 184 °C |
| CS(=O)(=O)c1c(N2CCN(C(=O)c3cccs3)CC2)c2cccnc2n(Cc2ccccc2)c1=O | 223 °C |
| N#CCC1COc2ccccc2C1 (stereo not drawn) | 54 to 55.5 °C |
| CN(C)CCNC(=O)N1CCC(Oc2cccc(Cl)c2Cl)C1 (stereo not drawn) | 94 to 95 °C |
| CN(Cc1ccc(NC(=O)C2=Cc3cc(-c4cc5ccccc5o4)ccc3S(=O)(=O)CC2)cc1)C1CCOCC1 | 234 to 235 °C |
| COC(=O)c1ccc(CC(C)NCC(O)c2ccc(Cl)cc2)cc1 (stereo not drawn) | 134 to 135 °C |
| NC(=O)N1C(=O)C(=C(OC(=O)C=Cc2ccccc2)c2cccs2)c2cc(F)c(Cl)cc21 | 214 to 215 °C |
